According to publication PMC5802278, “Molecular and cellular mechanisms of HIF prolyl hydroxylase inhibitors in clinical trials” (Chemical Science, 2017):
Where two headings read alike, the source gives them in different places.

Columns and labels:
[1] = test system: HIF-1α and HIF-2α in Hep3b cells; test: Immunoblotting of HIF-α stabilization in Hep3b cells; format: cell-based, human
Protocol: We then investigated potential time dependent effects of the inhibitors on HIF-α stabilization in Hep3b cells (Fig. 5A). […]
Cell Culture and Immunoblotting
HeLa and RCC4 cells were cultured in Dulbecco’s Modified Eagle’s Medium (DMEM; Sigma Aldrich D6546-500ML) supplemented with 10% fetal bovine serum (Sigma Aldrich F7524-500ML), 4 mM L-glutamine (Sigma Aldrich G7513- 100ML), 50 U/mL penicillin, and 50 μg/mL streptomycin (Sigma Aldrich P0781-100ML). Cells were seeded to reach 90-100% confluency prior to compound treatment. Cells were exposed to the inhibitor at a final concentration of 1% DMSO for 5-6 hours. For Fe(II) titration in the presence of inhibitors, […]
Cells were harvested in urea/SDS buffer (6.7 M urea, 10 mM Tris-Cl pH 6.8, 10% glycerol, and1% SDS) supplemented with 1mM dithiothreitol following a phosphate-buffered saline (PBS) rinse. Cell extracts were analyzed with SDS-PAGE, electroblotted to polyvinylidene difluoride (PVDF) membrane (Millipore) and probed with the corresponding primary antibody for 1 hour at room temperature or overnight at 4 °C. The secondary antibody specific to primary antibody species conjugated with HRP were applied at room temperature for 1 hour.
Millipore), anti-HIF-1α Hyp564 (D43B5, Cell Signaling), anti-HIF-1α HyN803 (a generous […]
Abcam). Details of antibodies used are given in Tian et al.17 Detection of signal was achieved […]
unless otherwise stated) either with film or ChemiDoc MP (BIO-RAD) imaging system. TM Quantification of the immunobloting signal was performed with Image Lab software from […]

[2] = target: JARID1B (KDM5B) (Homo sapiens, UniProt Q9UGL1); test: AlphaScreen histone demethylase assay; format: biochemical
Sequence of JARID1B (KDM5B) (Q9UGL1 whole entry): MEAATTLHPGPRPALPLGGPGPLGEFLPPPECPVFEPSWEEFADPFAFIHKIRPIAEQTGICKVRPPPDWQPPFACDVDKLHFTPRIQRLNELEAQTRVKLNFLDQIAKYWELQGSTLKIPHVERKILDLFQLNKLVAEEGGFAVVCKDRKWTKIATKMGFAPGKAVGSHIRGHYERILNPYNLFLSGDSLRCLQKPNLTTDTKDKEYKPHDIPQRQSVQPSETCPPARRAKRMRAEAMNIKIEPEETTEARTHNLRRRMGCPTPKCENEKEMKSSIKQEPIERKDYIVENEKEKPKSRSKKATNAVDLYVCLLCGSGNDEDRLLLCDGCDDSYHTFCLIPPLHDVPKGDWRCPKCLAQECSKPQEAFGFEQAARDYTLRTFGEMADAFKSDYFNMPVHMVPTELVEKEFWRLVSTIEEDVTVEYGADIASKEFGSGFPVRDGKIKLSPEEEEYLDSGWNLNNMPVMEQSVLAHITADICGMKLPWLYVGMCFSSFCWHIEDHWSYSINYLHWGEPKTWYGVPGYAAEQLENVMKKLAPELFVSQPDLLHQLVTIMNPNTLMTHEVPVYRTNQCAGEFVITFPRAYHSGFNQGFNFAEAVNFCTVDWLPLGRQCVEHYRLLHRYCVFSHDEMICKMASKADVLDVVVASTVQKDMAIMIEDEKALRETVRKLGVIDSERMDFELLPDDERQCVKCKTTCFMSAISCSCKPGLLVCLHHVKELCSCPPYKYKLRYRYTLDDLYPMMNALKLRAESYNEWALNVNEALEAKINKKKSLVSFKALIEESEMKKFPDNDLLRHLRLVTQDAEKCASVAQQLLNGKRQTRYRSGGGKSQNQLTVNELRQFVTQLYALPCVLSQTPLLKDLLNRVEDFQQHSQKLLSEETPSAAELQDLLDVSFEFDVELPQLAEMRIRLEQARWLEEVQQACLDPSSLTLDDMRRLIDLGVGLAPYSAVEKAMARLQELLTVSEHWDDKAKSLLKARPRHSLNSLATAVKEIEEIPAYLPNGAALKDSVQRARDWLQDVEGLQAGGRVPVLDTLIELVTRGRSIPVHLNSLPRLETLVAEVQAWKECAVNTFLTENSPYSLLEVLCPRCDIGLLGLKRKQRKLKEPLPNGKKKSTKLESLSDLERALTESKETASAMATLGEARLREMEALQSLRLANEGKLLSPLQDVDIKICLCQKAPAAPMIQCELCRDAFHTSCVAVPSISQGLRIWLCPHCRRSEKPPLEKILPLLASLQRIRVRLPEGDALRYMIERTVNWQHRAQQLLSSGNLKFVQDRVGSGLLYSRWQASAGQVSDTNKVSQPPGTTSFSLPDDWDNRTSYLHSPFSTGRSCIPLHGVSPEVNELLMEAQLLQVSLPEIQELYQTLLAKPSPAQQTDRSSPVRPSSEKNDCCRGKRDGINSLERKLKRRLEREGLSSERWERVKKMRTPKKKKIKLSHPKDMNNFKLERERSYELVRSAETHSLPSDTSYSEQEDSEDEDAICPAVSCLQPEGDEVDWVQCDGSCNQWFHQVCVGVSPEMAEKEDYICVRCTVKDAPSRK

[3] = target: T1, Tpa1p (Saccharomyces cerevisiae, UniProt P40032); test: MALDI-TOF MS Tpa1p hydroxylation assay; format: biochemical
T1 construct: His6 (N); made in house; host or cells: E. coli BL21(DE3)
T1 sequence (P40032 with tags, fused parts or gaps): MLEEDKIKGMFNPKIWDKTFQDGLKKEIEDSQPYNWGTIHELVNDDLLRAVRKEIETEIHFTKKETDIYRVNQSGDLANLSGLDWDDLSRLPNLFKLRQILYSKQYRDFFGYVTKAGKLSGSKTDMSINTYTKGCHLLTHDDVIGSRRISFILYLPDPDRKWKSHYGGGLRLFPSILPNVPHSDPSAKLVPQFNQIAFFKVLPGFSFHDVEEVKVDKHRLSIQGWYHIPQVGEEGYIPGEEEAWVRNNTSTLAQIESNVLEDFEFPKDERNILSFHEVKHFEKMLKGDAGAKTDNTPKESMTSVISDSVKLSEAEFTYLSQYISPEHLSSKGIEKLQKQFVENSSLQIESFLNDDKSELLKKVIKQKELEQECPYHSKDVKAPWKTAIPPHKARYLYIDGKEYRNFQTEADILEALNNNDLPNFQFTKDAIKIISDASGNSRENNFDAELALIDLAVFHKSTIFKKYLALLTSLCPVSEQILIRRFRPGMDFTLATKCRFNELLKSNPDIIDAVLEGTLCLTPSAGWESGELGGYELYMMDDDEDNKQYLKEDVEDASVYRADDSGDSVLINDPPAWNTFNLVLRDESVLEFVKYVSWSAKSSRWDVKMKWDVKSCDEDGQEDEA
Protocol: MALDI-TOF MS OFD1/TPA1p hydroxylation assays13
For enzyme production, the reported procedures were used.13 E. coli BL21(DE3) cells transformed with pNIC28-His6-Ofd1 or pNIC28-His6-Tpa1pΔ2-20 were cultured to an OD600 of 0.6; recombinant protein production was induced through the addition of isopropyl β-D-1-thiogalactopyranoside (IPTG) to a concentration of 0.5 mM. The induced cultures were […]
incubated overnight at 18°C with shaking, then harvested. The induced cells were suspended in 500 mM NaCl, 40 mM imidazole, 50 mM HEPES pH 7.5, sonicated, and the His-tagged protein was purified by nickel affinity chromatography.13 Both Ofd1 and Tpa1p were buffer-exchanged into 500 mM NaCl, 5% glycerol, 1 mM DTT, 50 mM HEPES pH 7.5 following […]
consisted of Ofd1 (1 µM) or Tpa1p (2 µM) with 2OG (20 µM), L-ascorbic acid (100 µM), (NH4)2Fe(SO4)2 (50 µM), RPS23 peptide (amino acid sequence
-CONH2; 25 µM) and the […]
relevant inhibitor (initially prepared in 10% DMSO, diluted to 1% DMSO in the reaction mixture) all in 50 mM HEPES pH 7.5. Reactions were quenched after 2 min (Ofd1) or 4 min (Tpa1p) by the addition of formic acid to a final concentration of 1%. The extent of hydroxylation was monitored by MALDI-TOF MS, and the IC50 curve was fit to the data using […]
LC-MS PHD2 hydroxylation assays
The PHD2 RF-MS RapidFire liquid chromatography mass spectrometry (RF-MS) assay monitors turnover of a C-terminal oxygenase dependent domain (CODD) peptide substrate […]
-CONH2 and appearance of the hydroxylated peptide product
(Pro564) in an endpoint type assay format (typical enzyme incubation time of 15 minutes).
Tris(hydroxymethyl)aminomethane was from Fisher. Ferrous ammonium sulfate (FAS), 2-oxoglutarate (2OG) and L-ascorbic acid were from Sigma Aldrich; solutions of these were prepared freshly each day. All inhibition assays were carried out in 384-well polypropylene plates (Greiner Bio-One). PHD2 assays were performed in assay buffer (50 mM Tris.Cl pH […]
were prepared using an ECHO 550 acoustic dispenser (Labcyte) and dry dispensed into 384-well polypropylene assay plates. The final assay concentration of DMSO was kept constant at 0.5%. PHD2 protein was prepared at a concentration of 300 nM in assay buffer and 25 μl dispensed across each 384-well assay plate. […] Peptide charge states were monitored in positive mode. Ion chromatogram data were extracted for the +2 charge state and peak area data integrated using RapidFire Integrator software (Agilent). % conversion of the CODD peptide substrate to the +16 hydroxylated peptide was calculated using the equation: % conversion = 100 x hydroxylated / (hydroxylated + non-hydroxylated peptide). IC50 values were determined from non-linear regression plots using GraphPad prism. […]

[4] = test system: hypoxia response element (HRE) firefly luciferase reporter in HT1080 cells; test: HRE luciferase reporter assay; format: cell-based; conditions: for EC50: Homo sapiens
Protocol: HT1080 cells were stably transfected with a construct containing a firefly luciferase gene under the control of 5 tandem copies of the sequence: […] (which contains the hypoxia response element (HRE) 3′ to the mouse erythropoietin gene) linked to a ‘minimal’ SV40 promoter.
HT1080P8 cells (25 000–30 000) were seeded into 96-well plates (100 μL per well) overnight to enable cell adhesion. […] The medium was removed and cells washed with PBS. Luciferase signal was measured using Luciferase Assay System kit from Promega (E1500) following the manufacturer's protocol with a FLUOstar Omega Microplate Reader (BMG Labtech).

[5] = HT-1080, 16 h, read-out: EC50 HRE luciferase reporter
[6] = isolated recombinant enzyme, 2 µM, read-out: IC50 Tpa1p

Structure (SMILES)	time at which HIF-2α level saturated ([1]; 2.5 μM)	time at which HIF-1α level saturated ([1]; 10 μM)	time at which HIF-2α level saturated ([1]; 10 μM)	IC50 ([2]; read-out: IC50 JARID1B (KDM5B))	IC50 [3]	concentrations at which the luciferase signals were reduced ([4]; HT1080 cells, 16 hours)	EC50 [4, 5]	concentration from which dose-dependent HIF-1α stabilization was clear ([1]; up to 6 hours)	EC50 ([4]; HT-1080, 6 h, read-out: EC50 HRE luciferase reporter)	EC50 ([4]; HT-1080, 24 h, read-out: EC50 HRE luciferase reporter)	IC50 [3, 6]	EC50 ([4]; HT-1080, 6 h, read-out: EC50 HRE luciferase reporter, HT1080 cells, 6 hours treatment)	EC50 ([4]; HT-1080, 16 h, read-out: EC50 HRE luciferase reporter, HT1080 cells, 16 hours treatment)	EC50 ([4]; HT-1080, 24 h, read-out: EC50 HRE luciferase reporter, HT1080 cells, 24 hours treatment)	IC50 [2]	Emax in HRE luciferase reporter assay ([4]; HT1080 cells, 16 hours)	EC50 ([4]; HT-1080, HT1080 cells, 16 hours treatment, read-out: EC50 HRE luciferase reporter)
CC(C)(C)OC(=O)c1ccc(-n2[nH]cc(-n3ccnn3)c2=O)nc1 [IOX4]	1 h	3 to 6 h	3 to 10 h	87 µM	2.3 µM	> 33 µM	0.8 µM	–	–	–	–	–	–	–	–	–	–
O=C(O)CNC(=O)c1ncc(-c2cccc(Cl)c2)cc1O [Vadadustat]	–	–	–	30 µM	–	–	41 µM	≥ 50 µM	15.7 µM	37 µM	–	–	–	–	–	–	–
Cc1nc(C(=O)NCC(=O)O)c(O)c2ccc(Oc3ccccc3)cc12 [FG-4592]	–	–	–	> 100 µM	–	–	–	–	–	–	12.8 µM	3 µM	7 µM	7 µM	–	–	–
O=C(O)CNC(=O)C1C(=O)N(C2CCCCC2)C(=O)N(C2CCCCC2)C1=O [GSK1278863]	–	3 h	3 h	–	5.1 µM	> 33 µM	0.8 µM	–	–	–	–	–	–	–	> 100 µM	lowest observed Emax	–
O=c1c(-n2ccnn2)c[nH]n1-c1cc(N2CCOCC2)ncn1 [Molidustat]	1 h	after the first hour	after the first hour	> 100 µM	–	> 33 µM	–	–	–	–	3.8 µM	–	–	–	–	–	2.1 µM
